Patent US11535579B2, “Hydrofluoroolefin ethers, compositions, apparatuses and methods for using same” (3M INNOVATIVE PROPERTIES COMPANY, priority 2017, dated 2022)

Legend:
[1] = Thermal stability: stirred 24 h with or without adsorbent, purity by GC-FID; format: physicochemical
Protocol: The samples were stirred for 24 h at the temperatures indicated in Table 4 and then analyzed for purity by GC-FID.

[2] = Kinematic viscosity (AVS 350 Viscosity Timer, glass viscometer); format: physicochemical
Protocol: Kinematic viscosity of PE-1 was measured using a Viscosity Timer available under the trade designation “AVS 350” from SI Analytics, College Station, Tex., USA. For temperatures below 0° C., a temperature control bath available from Lawler Manufacturing Corporation, Edison, N.J., USA was used. The viscometer measurements stand and glass viscometer were immersed in a temperature-controlled liquid bath filled with NOVEC 7500. The Lawler temperature bath was fitted with a copper tubing coil for liquid nitrogen cooling with fine temperature control provided by the bath's electronic temperature control heater. The fluid was mechanically stirred to provide uniform temperature in the bath. The bath controls temperature within 0.1° C., measured by the built-in RTD temperature sensor. The sample liquid was added to the viscometer between the two fill lines etched on the viscometer. The AVS 350 automatically pumped the sample fluid above the upper timing mark then released the fluid followed by measurement of efflux times between the upper and lower timing marks. The fluid meniscus was detected by optical sensors as it passed each timing mark. The sample was drawn up and measured repeatedly, averaging multiple measurements.
The glass viscometers were calibrated using certified kinematic viscosity standard fluids available from Cannon Instrument Company, State College, Pa., USA to obtain a calibration constant (centistokes per second) for each viscometer.
The measured kinematic viscosity (centistokes) which is the average efflux time (seconds)×constant (centistokes/second) is presented in Table 3. The data summarized in Table 3 indicates a favorable low temperature liquid range, which renders these materials useful in heat transfer applications.

## FC(F)(F)C(F)(F)C(F)(F)OC/C=C/COC(F)(F)C(F)(F)C(F)(F)F [PE-1, (E)-1,4-bis(perfluoropropoxy)but-2-ene]
[1]; 4 Angstrom Molecular Sieves 100 mg, 60 °C
  Purity (thermal stability): 91.9%
[1]; Activated Carbon 100 mg, 60 °C
  Purity (thermal stability): 91.8%
[1]; Basic Alumina 100 mg, 60 °C
  Purity (thermal stability): 92.0%
[1]; K2CO3 100 mg, 60 °C
  Purity (thermal stability): 91.6%
[1]; No Adsorbent, 25 °C
  Purity (thermal stability): 91.7%
[1]; No Adsorbent, 60 °C
  Purity (thermal stability): 91.7%
[1]; Silica Gel 100 mg, 60 °C
  Purity (thermal stability): 91.7%
[2]; 0.0 °C
  Kinematic Viscosity: 3.16 cSt
[2]; −10.0 °C
  Kinematic Viscosity: 4.28 cSt
[2]; −30.0 °C
  Kinematic Viscosity: 10.24 cSt
[2]; −40.0 °C
  Kinematic Viscosity: 17.44 cSt
[2]; −50.0 °C
  Kinematic Viscosity: 28.23 cSt
[2]; −60.0 °C
  Kinematic Viscosity: 59.59 cSt
